Reference: US11198869B2, “Angelman syndrome antisense treatment” (The Texas A&M University System, priority 2017, dated 2021)

Test system: UBE3A
Experiment: UBE3A steady state RNA (qRT-PCR) in GABAergic iPSC-derived neurons
Type: cell-based, human
Conditions: for Difference, UBE3A RNA level: ASOs 10 μM; for increase of UBE3A RNA levels: 10 μM; for effect on UBE3A RNA levels (in words): treated 29 DIV, RNA 35 DIV, 10-point dose curve
Protocol: Human-specific ASOs were then designed to target this region, which included four ASOs targeting non-polymorphic regions in human and regions conserved (100%) with macaque (Rhesus and Cynomolgus) (Table 7 and FIG. 3A). Human induced pluripotent stem cell (iPSC) neural precursor cells were differentiated into GABAergic neurons for 14 DIV and then treated with a control ASO [ASO-C (10 μM, n=3)], Topotecan [Topo (1 μM, n=2)], and six ASOs targeting UBE3A-AS [ASO-1, ASO-2, ASO-3, ASO-4, ASO-5, and ASO-6 (10 μM, n=3)]. Additionally, an ASO targeting an intronic region downstream of SNORD109B was included (ASO-7). Six days post-treatment (20 DIV), RNA was isolated from the neurons and the steady state RNA levels of UBE3A-AS and UBE3A were estimated relative to the control treatment (FIG. 3B).
The effects of ASO-4 and Topotecan were then examined on the SNORD116, IPW, SNORD115, and SNORD109A RNAs, which are located upstream of the ASO-4 target region (see FIG. 1A).
The potency of ASO-4 was further examined in iPSC-derived neurons at a later time point in differentiation. GABAergic iPSC-derived neurons were treated at 59 DIV with a control ASO [ASO-C, 10 μM (n=3)] and ASO-4 [1 uM, 5 μM, and 10 μM (n=3)], and the steady state RNA levels of UBE3A-AS and UBE3A were measured as described above (FIG. 4G). Unlike neurons treated with ASO-4 at an earlier time point, the RNA levels of UBE3A and UBE3A-AS were highly inversely correlated (FIGS. 4H and 4I). For example, the effect of ASO-4 (10 μM) on UBE3A-AS RNA levels was similar between neurons treated at 14 and 59 DIV [20 DIV: UBE3A-AS: ↓87% (95% confidence intervals (CI): 80 to 95%); 65 DIV: ↓81% (95% CI: 74 to 88%)], whereas the effect of ASO-4 on UBE3A RNA levels was substantially larger in neurons treated at 59 DIV [20 DIV: ↑30% (95% CI: 16 to 44%); 65 DIV: ↑86% (95% CI: 59% to 113%)].
The potency of ASO-4 and ASO-6.1 was further examined in iPSC-derived neurons at a later time point in differentiation. GABAergic iPSC-derived neurons were treated at 29 DIV with a 10-point ½ log dose response curve of ASO-4 and ASO-6.1 [1 nM, 3 nM, 10 nM, 30 nM, 100 nM, 300 nM, 1 μM, 3 μM, 10 μM, and 30 μM (n=3)]. At 35 DIV, the IC50 and Emax of each ASO was estimated as described above (FIG. 5C-D and Table 14). The dose response curves of ASO-4 and ASO-6.1 were not similar (Parallelism test: F(3,172)=22.7, p<0.0001).
GABAergic and glutamatergic induced pluripotent stem cell (iPSC) derived neural precursor cells (NRC-100-010-001 and GNC-301-030-001, Cellular Dynamics International, Madison Wis.) were differentiated into neurons according to the manufactures protocol. Briefly, neural precursor cells were thawed and resuspended in chemically defined medium and added to sterile-culture plates coated with poly-D-lysine and laminin. The medium was replaced 24 hr after plating and then one-half of the medium was replaced every 3-5 days afterwards.
For cultured iPSC-derived neurons, RNA isolation and cDNA synthesis were performed using the Cell-to-CT kit (Thermo Fisher Scientific) in a lysate volume of 55 μl.
The steady state RNA levels of target transcripts were measured using TaqMan quantitative reverse-transcription PCR (qRT-PCR) assays. Total reaction volume was 10 uL, including 2 μl of cDNA, 1× Gene Expression Master mix (4369016, Thermo Fisher Scientific, Waltham, Mass.), and 1× TaqMan primer assay (Thermo Fisher Scientific). Cycling conditions were 2 minutes at 50° C., 10 minutes at 95° C., and 40 cycles of 15 seconds at 95° C. and 1 minute at 60° C., with readings taken at the 60° C. step of every cycle. Reactions were run on a BIO-RAD T1000 CFX96 thermocycler (Bio-Rad Laboratories, Hercules Calif.), with internal control (PPIA, Hs99999904_m1, Thermo Fisher Scientific) and target [UBE3A-AS, Hs01372957_m1; SNORD116-11, Hs04275268_gH; SNORD115, Hs04275288_gH; IPW, Hs03455409_s1; SNORD109A/B, AP47WVR (Thermo Fisher Scientific); UBE3A: forward […] (SEQ ID NO:500); reverse: […]

[1] = Topo 1 μM, 14 DIV to 20 DIV, labelled treatment minus ASO-3
[2] = Topo 1 μM, 14 DIV to 20 DIV, labelled treatment minus ASO-5
[3] = Topo 1 μM, 14 DIV to 20 DIV, labelled treatment minus ASO-6
[4] = Topo 1 μM, 14 DIV to 20 DIV, labelled treatment minus ASO-R
[5] = Topo 1 μM, treated 14 DIV, RNA 20 DIV, normalized to ASO-C, labelled treatment minus ASO-C
[6] = 14 DIV to 20 DIV, labelled treatment minus ASO-1
[7] = 14 DIV to 20 DIV, labelled treatment minus Topo (1 μM)

Molecule	Difference, UBE3A RNA level [1]	Difference, UBE3A RNA level [2]	Difference, UBE3A RNA level [3]	Difference, UBE3A RNA level [4]	Difference, UBE3A RNA level [5]	increase of UBE3A RNA levels (treated 14 DIV, RNA 20 DIV) [%]	increase of UBE3A RNA levels (treated 59 DIV, RNA 65 DIV) [%]	Difference, UBE3A RNA level [6]	Difference, UBE3A RNA level (14 DIV to 20 DIV, labelled treatment minus ASO-2)	Difference, UBE3A RNA level [7]	effect on UBE3A RNA levels (in words)
CC[C@@]1(O)C(=O)OCc2c1cc1n(c2=O)Cc2cc3c(CN(C)C)c(O)ccc3nc2-1 [Topotecan, reference compound]	0.05	0.02	0.02	0.18	0.18	–	–	–	–	–	–
U^O*A^O*G^O*A^O*A^O*t*g*g*c*a*c*a*t*c*t*C^O*U^O*U^O*G^O*G^O [ASO-4]	0.17	0.13	0.13	0.29	0.30	30	86	0.11	0.08	0.11	increasing RNA levels in dose dependent manner
C^O*U^O*G^O*G^O*t*g*t*c*a*a*c*a*a*g*C^O*C^O*A^O*A^O [ASO-6.1]	–	–	–	–	–	–	–	–	–	–	increasing RNA levels in dose dependent manner
G^O*U^O*A^O*C^O*U^O*c*t*t*c*c*t*c*a*g*t*C^O*A^O*U^O*C^O*C^O [ASO-2]	0.08	0.05	0.05	0.21	0.21	–	–	0.03	–	0.03	–
